Source: patent publication US20240327852A1, “METHODS OF TRANSFORMATION” (SYNGENTA CROP PROTECTION AG, priority 2019, published 2024)

Assays:
Type in all cases: in vivo
[1] = system: soybean (Glycine max) explants; assay: Comparison of greenhouse selection effectiveness between BSU and Ecomazayr for ALS selectable marker
Experimental: (§1) The explants were transplanted to soil for further selection and development of transgenic shoots after immersed in Soy2 medium for 2 day and in Soy2 medium with 2 μM bensulfuron-methyl for 5 days. The selection is performed for three weeks in GH by application with various concentrations of bensulfuron-methyl using mounted cotton ball or daily liquid spay methods. The recovered shoots from each treatment were subjected for Taqman assay to confirm the transgenic frequency. The application solution contains bensulfuron-methyl, 1 g/L MES and BAP (2 mg./L for first week, and 1 mg/L for second and third weeks, or 2 mg/L or 1 mg/l for three weeks). Alternatively, the transplanted explants in soil can be directly spayed with selection solution containing commercial herbicide Ecomazayr (1-8 μM isopropylamine salt of imazapyr), 1-2 mg/L BAP and 1 g/L MES for 3 weeks.
An experiment was conducted to compare the selection effectiveness in greenhouse between BSU and commercial herbicide Ecomazayr for ALS selectable marker using current transformation method.

[2] = system: soybean (Glycine max) explants; assay: Semi-in-planta soybean transformation, greenhouse glyphosate selection for EPSPS marker, Taqman assay of recovered shoots; settings: 3 weeks greenhouse selection, 48 explants
Experimental: (§2) Sterilized mature soybean (Glycine max) seeds were used. Prior to Agrobacterium inoculation, seeds were soaked in sterilized H2O or liquid medium Soy1 for overnight (12-18 hours) at 22-24° C. Liquid medium Soy 1 contains 3.1 g/L Gamborg's B5 basal medium and 2 mg/L BAP
(§3) The seed coat was removed from the soaked seed. One of the cotyledons and both primary leaves were carefully removed and discarded. Next, the region containing the epicotyl, apical meristem and the cotyledonary node were wounded by making several cuts with the sharp end of scalpel blade.
(§4) Agrobacterium tumefaciens strain [Chry5d3 recA−] was used. The Agrobacterium harbored a binary vector containing a selectable marker and gene of interest, specifically construct 23093 containing EPSPS selectable marker driven by translation elongation factor EF-1 alpha/Tu promoter and AmCyan gene driven by Cestrum Yellow leaf curl virus promoter (prCMP), construct18891 containing codon-optimized Acetolactate synthase (ALS) double mutant (P191A, W568L) from Nicotiana tabacum for soybean and AmCyan gene driven by prCMP, and construct 22296 containing codon-optimized Acetolactate synthase (ALS) double mutant (P191A, W568L) from Nicotiana tabacum for soybean driven by translation elongation factor EF-1 alpha/Tu promoter, including the first intron and neighboring 5′-UTR, from soybean (Williams 82) prGmEF-02. Agrobacterium culture was streaked from −80° C. from glycerol stock onto YP plates containing 100 mg/L ampicillin and 500 mg/L spectinomycin appropriate antibiotics and grown in a 23° C. incubator. Before inoculation with explants, Agrobacterium cells were collected from the plate and were uniformly suspended in liquid infection medium SoyInf in a sterile disposable 50 ml centrifuge tube and diluted to OD A660 of approximately 0.3 to 0.6. A final concentration of 40-80 mg/L (200-400 uM) acetosyringone was added to induce virulence gene expression. Dithiothreitol (DTT) was added to a final concentration of 150 μg/ml. SoyInf contains 1.1 g/L MS basal salt mixture, 20 g/L sucrose, 10 g/L glucose, 4 g/L MES, 1 ml/L Gamborg's B5 vitamins (1000×) and 2 mg/L zeatin riboside.
(§5) The wounded explants were immediately infected with Agrobacterium by immersing them with the Agrobacterium suspension, and then incubated for 18 hours in dark at room temperature. After infection, the explants were removed from the Agrobacterium suspension and transferred to petri dishes for co-cultivation in an airtight plastic container. The co-cultivation plates were incubated for 3-5 days at 22±1° C. in the dark, with explants placed adaxial side up.
After 2 day in Soy2 medium and 5 days in Soy2 medium with 100 μM glyphosate, the explants were transplanted to soil for further selection and development of transgenic shoots. The selection is performed for three weeks in GH by application with various concentrations of glyphosate using mounted cotton ball or daily liquid spay methods. The recovered shoots from each treatment were subjected for Taqman assay to confirm the transgenic frequency. The application solution contains glyphosate, 1 g/L MES and BAP (2 mg./L for first week, and 1 mg/L for second and third weeks, or 2 mg/L or 1 mg/l for three weeks).
To obtain an optimal selection conditions and methods for EPSPS selection, a side-by-side comparison experiment was conducted. Transgenic events can be recovered without selection in Greenhouse at 18% transformation frequency with more than 80% escape rate. […] Similar results can also be achieved by daily spay of 150 μM or more of glyphosate with few escapes.

[3] = system: soybean (Glycine max) explants; assay: Semi-in-planta soybean transformation, greenhouse bensulfuron-methyl selection for ALS marker, Taqman assay of recovered shoots; settings: for Escape rate / Number of events / TF: 3 weeks greenhouse selection
Experimental: as §2, §3, §4, §5, §1
To obtain an optimal selection conditions and methods for ALS selection, a side-by-side comparison experiment was conducted. Transgenic events can be recovered without selection in Greenhouse at more than 18% transformation frequency with 73% escape rate. […] By using cotton ball method for application of bensulfuron-methyl, high transformation frequency (˜40%) with high single copy event rate (50%) was obtained. […]

[4] = greenhouse selection 1 μM imazapyr, 56 explants
[5] = greenhouse selection 2 μM imazapyr, 56 explants
[6] = greenhouse selection 3 μM imazapyr, 56 explants
[7] = greenhouse selection 4 μM imazapyr, 56 explants
[8] = greenhouse selection 5 μM imazapyr, 56 explants
[9] = greenhouse selection 6 μM imazapyr, 56 explants
[10] = greenhouse selection 7 μM imazapyr, 52 explants
[11] = greenhouse selection 8 μM imazapyr, 54 explants
[12] = cotton ball, 3 μM bensulfuron-methyl, 40 explants
[13] = cotton ball, 6 μM bensulfuron-methyl, 48 explants
[14] = cotton ball, 9 μM bensulfuron-methyl, 48 explants
[15] = daily spray, 3 μM bensulfuron-methyl, 48 explants
[16] = daily spray, 4 μM bensulfuron-methyl, 48 explants
[17] = daily spray, 5 μM bensulfuron-methyl, 48 explants
[18] = daily spray, 6 μM bensulfuron-methyl, 48 explants
[19] = daily spray, 7 μM bensulfuron-methyl, 48 explants
[20] = daily spray, 8 μM bensulfuron-methyl, 48 explants
[21] = daily spray, 9 μM bensulfuron-methyl, 48 explants
[22] = daily spray, 10 μM bensulfuron-methyl, 48 explants
[23] = greenhouse selection 3 μM BSU, 56 explants

## CC(C)C1(C)N=C(c2ncccc2C(=O)O)NC1=O (stereo not shown) [imazapyr]
[1]; ALS selectable marker, recovery of ALS transgenic plants
  selection effectiveness in greenhouse: as effective as BSU
[1]; [4]
  Number of escapes: 1
  Number of events: 15
  Transformation frequency (%): 26.8%
[1]; [5]
  Number of escapes: 0
  Number of events: 12
  Transformation frequency (%): 21.4%
[1]; [6]
  Number of escapes: 0
  Number of events: 20
  Transformation frequency (%): 35.7%
[1]; [7]
  Number of escapes: 0
  Number of events: 14
  Transformation frequency (%): 25.0%
[1]; [8]
  Number of escapes: 0
  Number of events: 8
  Transformation frequency (%): 14.3%
[1]; [9]
  Number of escapes: 0
  Number of events: 10
  Transformation frequency (%): 17.9%
[1]; [10]
  Number of escapes: 0
  Number of events: 10
  Transformation frequency (%): 19.2%
[1]; [11]
  Number of escapes: 0
  Number of events: 10
  Transformation frequency (%): 18.5%

## O=C(O)CNCP(=O)(O)O [glyphosate]
[2]; cotton ball, 100 μM glyphosate
  Escape rate: 2.1%
  Number of events: 16
  Transformation Frequency: 33.3%
[2]; cotton ball, 125 μM glyphosate
  Escape rate: 0.0%
  Number of events: 25
  Transformation Frequency: 52.1%
[2]; cotton ball, 150 μM glyphosate
  Escape rate: 0.0%
  Number of events: 24
  Transformation Frequency: 50.0%
[2]; cotton ball, 175 μM glyphosate
  Number of events: 23
  Transformation Frequency: 47.9%
[2]; daily spray, 100 μM glyphosate
  Escape rate: 2.1%
  Number of events: 11
  Transformation Frequency: 22.9%
[2]; daily spray, 125 μM glyphosate
  Escape rate: 6.3%
  Number of events: 13
  Transformation Frequency: 27.1%
[2]; daily spray, 150 μM glyphosate
  Escape rate: 2.1%
  Number of events: 20
  Transformation Frequency: 41.7%
[2]; daily spray, 175 μM glyphosate
  Escape rate: 6.3%
  Number of events: 22
  Transformation Frequency: 45.8%
[2]; daily spray, 200 μM glyphosate
  Escape rate: 6.3%
  Number of events: 20
  Transformation Frequency: 41.7%
[2]; daily spray, 250 μM glyphosate
  Escape rate: 4.2%
  Number of events: 15
  Transformation Frequency: 31.3%
[2]; daily spray, 300 μM glyphosate
  Escape rate: 2.1%
  Number of events: 23
  Transformation Frequency: 47.9%

## COC(=O)c1ccccc1CS(=O)(=O)NC(=O)Nc1nc(OC)cc(OC)n1 [bensulfuron-methyl]
[3]; 3 μM or higher concentrations of bensulfuron-methyl
  escape events recovered: No escape event
[3]; [12]
  Escape rate: 0.0%
  Number of events: 16
  TF: 40.0%
[3]; [13]
  Escape rate: 0.0%
  Number of events: 13
  TF: 27.1%
[3]; [14]
  Escape rate: 0.0%
  Number of events: 9
  TF: 18.8%
[3]; [15]
  Escape rate: 0.0%
  Number of events: 18
  TF: 37.5%
[3]; [16]
  Escape rate: 0.0%
  Number of events: 10
  TF: 20.8%
[3]; [17]
  Escape rate: 0.0%
  Number of events: 10
  TF: 20.8%
[3]; [18]
  Escape rate: 0.0%
  Number of events: 10
  TF: 20.8%
[3]; [19]
  Escape rate: 0.0%
  Number of events: 6
  TF: 12.5%
[3]; [20]
  Escape rate: 0.0%
  Number of events: 11
  TF: 22.9%
[3]; [21]
  Escape rate: 0.0%
  Number of events: 12
  TF: 25.0%
[3]; [22]
  Escape rate: 0.0%
  Number of events: 8
  TF: 16.7%
[1]; [23]
  Number of escapes: 0
  Number of events: 12
  Transformation frequency (%): 21.4%
